For 1 compound, Km results are on record in publication doi:10.1101/2020.06.06.138008v1 (biorxiv, 2020).

Usually Km stands for the concentration of substrate that gives half-maximal velocity.

Structures are written as SMILES.

For this experiment, the target named is MlaFEDB (Escherichia coli, UniProt P63386). As to conditions: pH 8.0, 5 mM MgCl2, 150 mM NaCl, 0.5 mM DDM micelles; Hill n = 1.81 ± 0.35.
Sequence of MlaFEDB (P63386 whole entry): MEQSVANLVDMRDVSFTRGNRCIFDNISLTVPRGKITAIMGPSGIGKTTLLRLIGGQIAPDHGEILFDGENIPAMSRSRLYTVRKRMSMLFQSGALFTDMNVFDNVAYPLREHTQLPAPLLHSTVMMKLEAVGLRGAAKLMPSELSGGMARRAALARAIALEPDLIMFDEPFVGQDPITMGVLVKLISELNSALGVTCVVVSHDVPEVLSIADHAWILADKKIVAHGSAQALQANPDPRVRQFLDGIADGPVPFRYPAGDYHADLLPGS
Sequence of MlaFEDB (P64606 whole entry partner): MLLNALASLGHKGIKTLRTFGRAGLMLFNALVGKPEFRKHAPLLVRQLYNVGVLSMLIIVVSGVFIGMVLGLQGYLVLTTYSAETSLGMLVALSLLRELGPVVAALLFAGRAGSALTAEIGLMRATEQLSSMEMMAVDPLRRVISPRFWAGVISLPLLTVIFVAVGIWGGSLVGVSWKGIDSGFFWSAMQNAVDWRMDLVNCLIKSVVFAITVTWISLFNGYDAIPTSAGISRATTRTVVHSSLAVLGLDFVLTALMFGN
Sequence of MlaFEDB (P64604 whole entry partner): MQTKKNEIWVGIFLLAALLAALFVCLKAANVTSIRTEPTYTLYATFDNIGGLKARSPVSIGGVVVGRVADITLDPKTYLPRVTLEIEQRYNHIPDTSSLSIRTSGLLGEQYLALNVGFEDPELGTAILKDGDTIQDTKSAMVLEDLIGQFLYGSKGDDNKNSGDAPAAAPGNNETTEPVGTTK
Sequence of MlaFEDB (P64602 whole entry partner): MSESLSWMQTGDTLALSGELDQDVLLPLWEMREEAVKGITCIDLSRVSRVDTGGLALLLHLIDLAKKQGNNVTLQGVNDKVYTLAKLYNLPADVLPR

With `Nc1ncnc2c1ncn2[C@@H]1O[C@H](COP(=O)(O)OP(=O)(O)OP(=O)(O)O)[C@@H](O)[C@H]1O` [ATP], the Km came to 200 ± 44.6 µM.
